From patent publication EP3892275A1, “AEROSOLIZATION OF HCQ OR ITS METABOLITES FOR THE TREATMENT OF LUNG INFECTIONS” (INSERM (Institut National de la Santé et de la Recherche …, priority 2020, dated 2021)

Tests used:
[1] = Behaviour in water (solubility, aggregation)
COVID = conditions: references 1,2; cited from earlier work
lung = conditions: aerosol delivery in animals; cited from earlier work

| Compound | aggregation when dissolved in water [1] | solubility in water [1] | antiviral activity in vitro at a cellular level (COVID) | anti-inflammatory effect on the lung (lung) |
| --- | --- | --- | --- | --- |
| CCN(CCO)CCCC(C)Nc1ccnc2cc(Cl)ccc12.O=S(=O)(O)O (stereo not drawn) [HCQ, 2-[[4-[(7-Chloro-4-quinolyl)amino]pentyl]ethylamino] ethanol sulfate (1:1)] | do not aggregate | water-soluble | highly potent antiviral drug | rapid and potent anti-inflammatory effect on the lung |
| CC(CCCNCCO)Nc1ccnc2cc(Cl)ccc12 (stereo not drawn) [DHCQ, N-desethylhydroxychloroquine] | do not aggregate | water-soluble |  |  |
